Patent US11535607B2, “Isoindolines as HDAC inhibitors” (Valo Health, Inc., priority 2018, dated 2022)
Converted amounts (≈) assume the structure as drawn. Where a name gives a salt, the structure may show the parent alone. Read-outs that look alike come from different tables or passages of the source.

Assays:
[1] = molecular target: T1, full-length human HDAC11 (Homo sapiens (Human), UniProt Q96DB2); assay: Probe binding HDAC11 time resolved fluorescence (TRF) assay; settings: Table 2, read-out: HDAC11 IC50 Range
Description: The probe binding HDAC11 assay was performed using a time resolved fluorescence (TRF) assay format. Recombinant N-terminal GST tag full-length human HD AC 11 was expressed and purified from baculovirus in Sf9 insect cells (SignalChem, #H93-30G-1000). […] 4 μL of 2× probe and 2× anti-GST Terbium (Cisbio, #61GSTXLB) was added to assay plates followed by 4 μL of 2×HDAC11.
Data from HD AC 11 Assays were reported as percent inhibition (inh) compared with control wells based on the following equation: % inh=1−((FLU−AveLow)/(AveHigh−AveLow)) where FLU=measured time resolved fluorescence. AveLow=average time resolved fluorescence of no enzyme control (n=32). AveHigh=average time resolved fluorescence of DMSO control (n=32). IC50 values were determined by curve fitting of the standard 4 parameter logistic fitting algorithm included in the Activity Base software package: IDBS XE Designer Model205. Data is fitted using the Levenburg Marquardt algorithm.

[2] = molecular target: T1, full-length human HDAC11; assay: HDAC11 deacetylase electrophoretic mobility shift assay (Nanosyn); assay type: biochemical; settings: for HDAC11 potency, in words: comparison with parent or lead compound; for IC50: mobility shift assay
Description: The measurement of HD AC 11 deacetylase activity was performed using an electrophoretic mobility shift assay by Nanosyn (Santa Clara, Calif.). Full length human recombinant HD AC 11 protein was expressed in baculoviral system and purified by affinity chromatography. The enzymatic reactions were assembled in 384 well plates in a total volume of 25 μL in a reaction buffer composing: 100 mM HEPES, pH 7.5, 25 mM KCl, 0.1% bovine serum albumin, 0.01% Triton X-100, 1% DMSO (from compounds), 2 μM of the fluorescently labeled peptide substrate and enzyme. The enzyme was added at a final concentration of 10 nM. The peptide substrate FAM-RHKK(tri-fluor-Ac)—NH2 was used. The compounds were tested at 12 concentrations spaced by 3× dilution intervals. Negative control samples (0%-inhibition in the absence of inhibitor) and positive control samples (100%-inhibition) were assembled in replicates of four in each assay plate. The reactions were incubated at 25° C. and quenched by the addition of 45 μL of termination buffer (100 mM HEPES, pH 7.5, 0.01% Triton X-100, 0.05% SDS).
The terminated assay plates were analyzed on LabChip® 3000 microfluidic electrophoresis instrument (Perkin Elmer/Caliper Life Sciences). The fluorescence intensity of the electrophoretically separated de-acetylated product and substrate peptide was measured. Activity in each sample was determined as the product to sum ratio (PSR): P/(S+P), where P is the peak height of the product peptide and S is the peak height of the substrate peptide. Percent inhibition (Pinh) is determined using the following equation: Pinh=(PSR0%−PSRinh)/(PSR0%−PSR100%)*100, where PSRinh, is the product sum ratio in the presence of inhibitor, PSR0% is the average product sum ration in the absence of inhibitor and PSR100% is the average product sum ratio in 100%-inhibition control samples. The IC50 values of inhibitors were determined by fitting the percent inhibition curves with 4 parameter dose-response model using XLfit 4 software.

[3] = In vitro intrinsic clearance after incubation with mouse liver microsomes; assay type: in vitro ADME; settings: for microsomal stability, in words: comparison
[4] = molecular target: HDAC11 (Homo sapiens (Human), UniProt Q96DB2); assay: Lipophilic efficiency (pIC50 HDAC11 - clogD7.4)
[5] = molecular target: HDAC6 (Homo sapiens (Human), UniProt Q9UBN7); assay: HDAC6 electrophoretic mobility shift assay; assay type: biochemical; settings: for IC50: mobility shift assay
[6] = Kinetic solubility at pH 7.4; assay type: physicochemical; settings: aqueous buffer, kinetic from dmso stock
[7] = pIC50 HDAC11 - clogD7.4, Table 5
[8] = Table 3, mean of at least two runs, read-out: HDAC 11 IC50
[9] = Table 3, mean of at least two runs, read-out: HDAC 6 IC50
[10] = pIC50 HDAC11 - clogD7.4, Table 6
[11] = pIC50 HDAC11 - clogD7.4, Table 4

Sequence of HDAC11 (Q96DB2 whole entry): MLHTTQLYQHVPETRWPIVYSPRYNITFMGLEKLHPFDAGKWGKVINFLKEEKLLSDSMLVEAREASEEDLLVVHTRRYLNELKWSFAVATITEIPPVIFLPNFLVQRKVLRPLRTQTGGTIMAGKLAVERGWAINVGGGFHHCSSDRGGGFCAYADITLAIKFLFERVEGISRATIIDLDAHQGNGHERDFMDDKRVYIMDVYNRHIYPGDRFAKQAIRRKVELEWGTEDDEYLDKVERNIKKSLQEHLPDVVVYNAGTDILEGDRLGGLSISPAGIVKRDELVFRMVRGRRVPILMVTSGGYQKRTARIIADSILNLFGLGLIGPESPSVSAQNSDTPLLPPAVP
T1 sequence (Q96DB2 whole entry): as above
Sequence of HDAC6 (Q9UBN7 whole entry, species assumed): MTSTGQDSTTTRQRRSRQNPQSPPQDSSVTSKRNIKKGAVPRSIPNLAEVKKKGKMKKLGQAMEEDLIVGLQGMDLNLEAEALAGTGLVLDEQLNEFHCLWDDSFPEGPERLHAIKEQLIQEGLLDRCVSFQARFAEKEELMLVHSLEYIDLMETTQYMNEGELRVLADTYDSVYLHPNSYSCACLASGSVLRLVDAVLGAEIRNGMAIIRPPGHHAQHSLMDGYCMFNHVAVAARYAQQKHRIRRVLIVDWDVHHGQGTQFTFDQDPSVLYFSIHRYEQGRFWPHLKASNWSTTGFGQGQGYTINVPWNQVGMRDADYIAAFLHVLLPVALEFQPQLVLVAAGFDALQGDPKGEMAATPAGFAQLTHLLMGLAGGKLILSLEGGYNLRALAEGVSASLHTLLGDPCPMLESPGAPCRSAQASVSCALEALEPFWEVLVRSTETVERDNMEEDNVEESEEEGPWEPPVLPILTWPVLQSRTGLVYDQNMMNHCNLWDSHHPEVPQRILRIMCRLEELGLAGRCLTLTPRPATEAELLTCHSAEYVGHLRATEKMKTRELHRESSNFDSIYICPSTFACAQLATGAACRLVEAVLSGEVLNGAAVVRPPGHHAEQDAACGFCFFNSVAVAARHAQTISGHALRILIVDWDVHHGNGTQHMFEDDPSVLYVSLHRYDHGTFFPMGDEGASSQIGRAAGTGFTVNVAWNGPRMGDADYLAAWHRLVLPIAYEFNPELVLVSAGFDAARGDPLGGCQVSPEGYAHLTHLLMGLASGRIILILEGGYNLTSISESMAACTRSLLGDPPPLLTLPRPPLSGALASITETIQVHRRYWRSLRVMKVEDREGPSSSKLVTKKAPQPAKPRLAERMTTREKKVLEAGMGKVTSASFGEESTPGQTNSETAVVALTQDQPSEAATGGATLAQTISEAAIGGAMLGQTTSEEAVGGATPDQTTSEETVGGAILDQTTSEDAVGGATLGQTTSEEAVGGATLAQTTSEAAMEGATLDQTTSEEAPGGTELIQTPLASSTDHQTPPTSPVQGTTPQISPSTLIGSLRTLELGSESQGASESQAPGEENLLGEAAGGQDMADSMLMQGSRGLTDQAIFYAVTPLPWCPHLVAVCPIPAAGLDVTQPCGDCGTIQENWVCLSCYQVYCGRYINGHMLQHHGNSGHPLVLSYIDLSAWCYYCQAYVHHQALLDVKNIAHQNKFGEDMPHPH

## O=C(NO)c1cccc2c1CN(c1nc3ccccc3s1)C2 [Compound 7-4, 2-(benzo[d]thiazol-2-yl)-N-hydroxyisoindoline-4-carboxamide]
[1]
  IC50: < 500 nM
[2]
  HDAC11 potency, in words: improved potency
[2]; Table 5, read-out: HDAC11 IC50
  IC50: < 500 nM
[3]; Table 5
  microsomal CLint: > 100 µL/min/mg
[3]
  microsomal stability, in words: significant loss of microsomal stability
[4]; [7]
  LipE: + (indicates LipE≤5.5)

## Cc1nc(N2Cc3cccc(C(=O)NO)c3C2)[nH]c1C.Cl [Compound 1-2, 2-(4,5-dimethyl-1H-imidazol-2-yl)-N-hydroxyisoindoline-4-carboxamide hydrochloride]
[1]
  IC50: > 1000 nM
[2]
  HDAC11 potency, in words: loss of potency
[2]; Table 5, read-out: HDAC11 IC50
  IC50: > 1000 nM
[3]; Table 5
  microsomal CLint: 51 to 100 µL/min/mg
[3]
  microsomal stability, in words: loss of potency and microsomal stability
[4]; [7]
  LipE: ++ (indicates 5.5<LipE≤6.5)

## O=C(NO)c1cccc2c1CN(c1nc3ccccc3[nH]1)C2 [Compound 1-6, 2-(1H-benzo[d]imidazol-2-yl)-N-hydroxyisoindoline-4-carboxamide]
[5]; Table 4, read-out: HDAC6 IC50
  IC50: > 1000 nM
[3]; Table 4, read-out: m-CL-int
  microsomal CLint: < 50 µL/min/mg
[3]; Table 5
  m-CLint: +++ (indicates a m-CLint below 50 μL/min/mg)
[3]
  microsomal stability, in words: significant microsomal stability

## O=C(NO)c1cccc2c1CN(c1nc3ccccc3[nH]1)CC2 [Compound 50-6]
[2]; [8]
  IC50: > 2000 nM
[2]; relative to initial lead 50-4
  loss in activity vs. HDAC11: 2 fold
[5]; [9]
  IC50: < 500 nM
[5]; relative to initial lead 50-4
  loss in potency vs. HDAC6: 20 fold

## CC1(C)c2cccc(C(=O)NO)c2CN1c1nc2ccc(C(F)(F)F)cc2[nH]1 [Compound 17-1, N-hydroxy-1,1-dimethyl-2-(6-(trifluoromethyl)-1H-benzo[d]imidazol-2-yl)isoindoline-4-carboxamide]
[1]
  IC50: < 500 nM
[2]
  HDAC11 potency, in words: retained the potency
[2]; Table 6, read-out: HDAC11 IC50
  IC50: < 500 nM
[3]; Table 6
  microsomal CLint: < 50 µL/min/mg
[3]
  microsomal stability, in words: significant increase in stability
[4]; [10]
  LipE: ++ (indicates 5.5<LipE≤6.5)
[6]
  solubility: 30 to 55 µM (≈ 11.7 to 21.5 µg/mL)

## O=C(NO)c1cccc2c1CN(c1ccc(C(F)(F)F)cn1)C2 [Compound 45-1, N-hydroxy-2-(5-(trifluoromethyl)pyridin-2-yl)isoindoline-4-carboxamide]
[1]
  IC50: < 500 nM
[2]
  HDAC11 potency, in words: improved potency
[2]; Table 5, read-out: HDAC11 IC50
  IC50: < 500 nM
[3]; Table 5
  microsomal CLint: 51 to 100 µL/min/mg
[3]
  microsomal stability, in words: significant loss of microsomal stability
[4]; [7]
  LipE: ++ (indicates 5.5<LipE≤6.5)

## O=C(NO)c1ccc2c(c1)CN(c1nc3ccccc3[nH]1)CC2 [Compound 50-4]
[2]; [8]
  IC50: > 2000 nM
[5]; [9]
  IC50: < 500 nM

## O=C(NO)c1cccc2c1CN(c1nc3ccc(C(F)(F)F)cc3[nH]1)C2 [Compound 12-1, N-hydroxy-2-(6-(trifluoromethyl)-1H-benzo[d]imidazol-2-yl)isoindoline-4-carboxamide]
[1]
  IC50: < 500 nM
[2]
  HDAC11 potency, in words: significant increase in both potency and LipE
[2]; Table 5, read-out: HDAC11 IC50
  IC50: < 500 nM
[3]; Table 5
  microsomal CLint: > 100 µL/min/mg
[3]
  microsomal stability, in words: loss of microsomal stability
[4]; [7]
  LipE: ++ (indicates 5.5<LipE≤6.5)

## O=C(NO)c1cccc2c1CCN(c1nc3ccccc3[nH]1)CC2 [Compound 50-3]
[2]; Table 4, read-out: HDAC11 IC50
  IC50: < 500 nM
[2]; relative to the tetrahydroisoquinoline core
  increase in potency against HDAC11: > 10 fold
[5]; Table 4, read-out: HDAC6 IC50
  IC50: > 1000 nM
[3]; Table 4, read-out: m-CL-int
  microsomal CLint: > 100 µL/min/mg
[4]; [11]
  LipE: + (indicates LipE≤5.5)

## O=C(NO)c1cccc2c1CN(c1nc3ccccc3o1)C2 [Compound 15-1, 2-(benzo[d]oxazol-2-yl)-N-hydroxyisoindoline-4-carboxamide]
[1]
  IC50: < 500 nM
[2]
  HDAC11 potency, in words: improved potency
[2]; Table 5, read-out: HDAC11 IC50
  IC50: < 500 nM
[3]; Table 5
  microsomal CLint: > 100 µL/min/mg
[3]
  microsomal stability, in words: significant loss of microsomal stability
[4]; [7]
  LipE: +++ (indicates a LipE>6.5)

## O=C(NO)c1ccc2c(c1)CCN(c1nc3ccccc3[nH]1)C2 [Compound 50-5]
[2]
  HDAC11 potency, in words: loss of HD AC 11 potency
[2]; [8]
  IC50: > 2000 nM
[5]; [9]
  IC50: < 500 nM

## CC1(C)c2cccc(C(=O)NO)c2CN1c1nc2cc(C(F)(F)F)ccc2o1 [Compound 18-1, N-hydroxy-1,1-dimethyl-2-[5-(trifluoromethyl)-1,3-benzoxazol-2-yl]-2,3-dihydro-1H-isoindole-4-carboxamide]
[1]
  IC50: < 500 nM
[2]; Table 6, read-out: HDAC11 IC50
  IC50: < 500 nM
[3]; Table 6
  microsomal CLint: < 50 µL/min/mg
[4]; [10]
  LipE: ++ (indicates 5.5<LipE≤6.5)
[6]
  solubility: ≤ 30 µM

## Cl.O=C(NO)c1cccc2c1CN(c1nc3c([nH]1)CCCC3)C2 [Compound 1-4, N-hydroxy-2-(4,5,6,7-tetrahydro-1H-benzo[d]imidazol-2-yl)isoindoline-4-carboxamide hydrochloride]
[1]
  IC50: > 1000 nM
[2]
  HDAC11 potency, in words: loss of potency
[2]; Table 5, read-out: HDAC11 IC50
  IC50: > 1000 nM
[3]; Table 5
  microsomal CLint: > 100 µL/min/mg
[3]
  microsomal stability, in words: loss of potency and microsomal stability
[4]; [7]
  LipE: ++ (indicates 5.5<LipE≤6.5)

## O=C(NO)c1cccc2c1CCN(c1nc3ccccc3[nH]1)C2 [Compound 50-2]
[2]
  HDAC11 potency, in words: only modest HDAC11 activity
[2]; [8]
  IC50: 510 to 2000 nM
[2]; Table 4, read-out: HDAC11 IC50
  IC50: > 1000 nM
[5]; [9]
  IC50: > 2000 nM
[5]; Table 4, read-out: HDAC6 IC50
  IC50: > 1000 nM
[5]; text comparison with lead 50-4
  HDAC6 potency, in words: no significant HDAC6 potency
[3]; Table 4, read-out: m-CL-int
  microsomal CLint: < 50 µL/min/mg
[4]; [11]
  LipE: + (indicates LipE≤5.5)

## O=C(NO)c1cccc2c1CN(c1ccc3c(c1)OCCN3)C2 [Compound 9-1, 2-(3,4-dihydro-2H-benzo[b][1,4]oxazin-7-yl)-N-hydroxyisoindoline-4-carboxamide hydrochloride]
[1]
  IC50: 500 to 1000 nM

## O=C(NO)c1cccc2c1N[C@H](c1ccc(C(F)(F)F)cc1)C2 [Compound 39-2, (S)—N-hydroxy-2-(4-(trifluoromethyl)phenyl)indoline-7-carboxamide]
[1]
  IC50: > 1000 nM

## O=C(NO)c1cccc2c1CN(C(=O)c1ccccc1)C2 [Compound 41-1, 2-benzoyl-N-hydroxyisoindoline-4-carboxamide]
[1]
  IC50: > 1000 nM

## CC1(C)c2cccc(C(=O)NO)c2CN1C(=O)Nc1nc2ccccc2o1 [Compound 30-7, N2-(benzo[d]oxazol-2-yl)-N4-hydroxy-1,1-dimethylisoindoline-2,4-dicarboxamide]
[1]
  IC50: > 1000 nM

## CC1(C)c2cccc(C(=O)NO)c2CN1C(=O)Nc1cccc(C(F)(F)F)n1 [Compound 30-6, N4-hydroxy-1,1-dimethyl-N2-(6-(trifluoromethyl)pyridin-2-yl)isoindoline-2,4-dicarboxamide]
[1]
  IC50: > 1000 nM

## O=C(NO)c1cccc2c1CN(c1nc3cc(C(F)(F)F)c(-c4ccccc4)cc3[nH]1)C2 [Compound 34-1, N-hydroxy-2-(5-phenyl-6-(trifluoromethyl)-1H-benzo[d]imidazol-2-yl)isoindoline-4-carboxamide]
[1]
  IC50: < 500 nM

## Cl.O=C(NO)c1cccc2c1CN(c1ccc3ccccc3n1)C2 [Compound 7-2, N-hydroxy-2-(quinolin-2-yl)isoindoline-4-carboxamide hydrochloride]
[1]
  IC50: < 500 nM
[2]
  HDAC11 potency, in words: improved potency
[2]; Table 5, read-out: HDAC11 IC50
  IC50: < 500 nM
[3]; Table 5
  microsomal CLint: 51 to 100 µL/min/mg
[3]
  microsomal stability, in words: significant loss of microsomal stability
[4]; [7]
  LipE: + (indicates LipE≤5.5)

## CC1(C)c2cccc(C(=O)NO)c2CN1c1nc2cc(C(F)(F)F)ccc2s1 [Compound 20-2, N-hydroxy-1,1-dimethyl-2-(5-(trifluoromethyl)benzo[d]thiazol-2-yl)isoindoline-4-carboxamide]
[1]
  IC50: < 500 nM
